pKi: −log10 of the molar value. Active and inactive are the calls of the source. The rule behind the calls is not given here.
What follows are molecules tested on Oryctolagus cuniculus (assay: Antiglaucoma activity in New Zealand albino rabbit assessed as reduction in hypertonic saline-induced intraocular pressure at 2% solution administered topically measured after 2 hrs). Settings: Eye.
Format: functional, organism-based

SMILES	Activity
CC(C)(C)OC(=O)NCCCCOc1ccc(S(N)(=O)=O)cc1	Active
NCCCCOc1ccc(S(N)(=O)=O)cc1	Active

The molecules below were run against Carbonic anhydrase 9 (Homo sapiens, UniProt Q16790) (assay: Inhibition of human CA-9 by stopped flow CO2 hydrase assay). Settings: not given.

SMILES	pKi
CC(C)(C)OC(=O)NCCCCCOc1ccc(S(N)(=O)=O)cc1	8.15
CC(C)(C)OC(=O)NCCCOc1ccc(S(N)(=O)=O)cc1	8.24
CN(C)c1ccc2c(-c3ccc(NC(=S)NCCCOc4ccc(S(N)(=O)=O)cc4)cc3C(=O)O)c3ccc(=[N+](C)C)cc-3oc2c1	8.10
NS(=O)(=O)c1ccc(OCCNC(=S)Nc2ccc(-c3c4ccc(=O)cc-4oc4cc(O)ccc34)c(C(=O)O)c2)cc1	8.07
NS(=O)(=O)c1ccc(OCCCNC(=S)Nc2ccc(-c3c4ccc(=O)cc-4oc4cc(O)ccc34)c(C(=O)O)c2)cc1	8.14
CC(C)(C)OC(=O)NCCCCCCOc1ccc(S(N)(=O)=O)cc1	8.16
NCCCCCOc1ccc(S(N)(=O)=O)cc1	8.18
NCCCCCCOc1ccc(S(N)(=O)=O)cc1	8.19
NCCCOc1ccc(S(N)(=O)=O)cc1	7.75
CC(C)(C)OC(=O)NCCOc1ccc(S(N)(=O)=O)cc1	8.08
NS(=O)(=O)c1ccc(OCCCCNC(=S)Nc2ccc(-c3c4ccc(=O)cc-4oc4cc(O)ccc34)c(C(=O)O)c2)cc1	8.06
CN(C)c1ccc2c(-c3ccc(NC(=S)NCCOc4ccc(S(N)(=O)=O)cc4)cc3C(=O)O)c3ccc(=[N+](C)C)cc-3oc2c1	8.02
NCCCCOc1ccc(S(N)(=O)=O)cc1	7.49
NCCOc1ccc(S(N)(=O)=O)cc1	8.06
